Source: paper PMC5216056 (Nature Communications, 2017)
“Also recorded” adds a separate entry of the source.

What was measured:
[1] = system: Ca2+ channel (verapamil site); assay: CEREP panel; format: binding; settings: 10 µM
[2] = target: T1, NOP (ORL1) (h) (Homo sapiens, UniProt P41146); assay: CEREP panel; format: binding; settings: 10 µM
T1 construct: CEREP (contract assay)

[3] = target: T2, AT2 (h) (Homo sapiens, UniProt P50052); assay: CEREP panel; format: binding; settings: 10 µM
T2 construct: CEREP
T2 sequence (P50052 1-363): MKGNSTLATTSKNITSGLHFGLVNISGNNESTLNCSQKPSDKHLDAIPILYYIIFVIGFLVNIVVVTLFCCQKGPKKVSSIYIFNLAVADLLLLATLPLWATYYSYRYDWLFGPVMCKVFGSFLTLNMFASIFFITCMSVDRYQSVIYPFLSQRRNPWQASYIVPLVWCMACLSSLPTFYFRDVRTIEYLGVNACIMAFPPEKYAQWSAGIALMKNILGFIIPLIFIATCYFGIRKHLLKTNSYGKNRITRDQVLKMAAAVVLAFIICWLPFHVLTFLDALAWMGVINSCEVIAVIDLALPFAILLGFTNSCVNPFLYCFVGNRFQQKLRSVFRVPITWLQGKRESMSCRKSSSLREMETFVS

[4] = target: T3, mCB2R (Mus musculus, UniProt P47936); assay: [35S]GTPγS assay; format: biochemical; parameters: from tissue; host or cells: spleen of male C57BL/6J mice
T3 sequence (P47936 whole entry): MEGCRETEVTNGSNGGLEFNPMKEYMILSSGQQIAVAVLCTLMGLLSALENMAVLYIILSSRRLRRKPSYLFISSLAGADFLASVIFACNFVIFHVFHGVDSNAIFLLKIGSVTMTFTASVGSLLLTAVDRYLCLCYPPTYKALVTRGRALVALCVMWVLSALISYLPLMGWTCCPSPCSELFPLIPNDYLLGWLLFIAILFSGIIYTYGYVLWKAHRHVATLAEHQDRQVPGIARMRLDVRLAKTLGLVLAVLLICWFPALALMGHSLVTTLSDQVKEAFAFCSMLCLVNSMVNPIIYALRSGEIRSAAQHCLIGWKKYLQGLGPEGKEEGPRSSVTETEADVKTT

[5] = system: PDGF; assay: CEREP panel; format: binding; settings: 10 µM
[6] = target: T4, beta 2 (h) (Homo sapiens, UniProt P07550); assay: CEREP panel; format: binding; settings: 10 µM
T4 construct: CEREP
T4 sequence (P07550 whole entry): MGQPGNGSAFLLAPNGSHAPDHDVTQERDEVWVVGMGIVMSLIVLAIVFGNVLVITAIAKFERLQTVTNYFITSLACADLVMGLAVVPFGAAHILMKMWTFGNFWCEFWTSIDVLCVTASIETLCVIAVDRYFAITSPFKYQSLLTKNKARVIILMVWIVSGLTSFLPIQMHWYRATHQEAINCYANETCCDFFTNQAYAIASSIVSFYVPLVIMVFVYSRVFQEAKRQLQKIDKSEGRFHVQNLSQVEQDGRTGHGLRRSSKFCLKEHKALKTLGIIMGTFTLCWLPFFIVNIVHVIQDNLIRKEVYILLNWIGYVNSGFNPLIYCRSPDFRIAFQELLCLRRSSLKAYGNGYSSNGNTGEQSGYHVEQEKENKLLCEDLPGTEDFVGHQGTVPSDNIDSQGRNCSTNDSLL

[7] = target: T3, mCB2R; assay: Operational analysis of biased signalling
[8] = target: T5, MC4 (h) (Homo sapiens, UniProt P32245); assay: CEREP panel; format: binding; settings: 10 µM
T5 construct: CEREP (contract assay)
T5 sequence (P32245 whole entry): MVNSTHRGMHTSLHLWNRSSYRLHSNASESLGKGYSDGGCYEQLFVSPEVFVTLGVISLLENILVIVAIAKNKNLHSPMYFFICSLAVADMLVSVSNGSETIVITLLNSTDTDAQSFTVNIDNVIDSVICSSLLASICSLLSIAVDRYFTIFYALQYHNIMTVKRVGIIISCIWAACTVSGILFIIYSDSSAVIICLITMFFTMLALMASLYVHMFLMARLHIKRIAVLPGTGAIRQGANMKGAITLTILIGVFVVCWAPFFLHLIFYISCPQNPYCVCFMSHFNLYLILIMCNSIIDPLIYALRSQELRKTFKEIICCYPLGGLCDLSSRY

[9] = target: human P-gp (Homo sapiens, UniProt P08183); settings: efflux ratio
Chain of human P-gp (P08183 whole entry): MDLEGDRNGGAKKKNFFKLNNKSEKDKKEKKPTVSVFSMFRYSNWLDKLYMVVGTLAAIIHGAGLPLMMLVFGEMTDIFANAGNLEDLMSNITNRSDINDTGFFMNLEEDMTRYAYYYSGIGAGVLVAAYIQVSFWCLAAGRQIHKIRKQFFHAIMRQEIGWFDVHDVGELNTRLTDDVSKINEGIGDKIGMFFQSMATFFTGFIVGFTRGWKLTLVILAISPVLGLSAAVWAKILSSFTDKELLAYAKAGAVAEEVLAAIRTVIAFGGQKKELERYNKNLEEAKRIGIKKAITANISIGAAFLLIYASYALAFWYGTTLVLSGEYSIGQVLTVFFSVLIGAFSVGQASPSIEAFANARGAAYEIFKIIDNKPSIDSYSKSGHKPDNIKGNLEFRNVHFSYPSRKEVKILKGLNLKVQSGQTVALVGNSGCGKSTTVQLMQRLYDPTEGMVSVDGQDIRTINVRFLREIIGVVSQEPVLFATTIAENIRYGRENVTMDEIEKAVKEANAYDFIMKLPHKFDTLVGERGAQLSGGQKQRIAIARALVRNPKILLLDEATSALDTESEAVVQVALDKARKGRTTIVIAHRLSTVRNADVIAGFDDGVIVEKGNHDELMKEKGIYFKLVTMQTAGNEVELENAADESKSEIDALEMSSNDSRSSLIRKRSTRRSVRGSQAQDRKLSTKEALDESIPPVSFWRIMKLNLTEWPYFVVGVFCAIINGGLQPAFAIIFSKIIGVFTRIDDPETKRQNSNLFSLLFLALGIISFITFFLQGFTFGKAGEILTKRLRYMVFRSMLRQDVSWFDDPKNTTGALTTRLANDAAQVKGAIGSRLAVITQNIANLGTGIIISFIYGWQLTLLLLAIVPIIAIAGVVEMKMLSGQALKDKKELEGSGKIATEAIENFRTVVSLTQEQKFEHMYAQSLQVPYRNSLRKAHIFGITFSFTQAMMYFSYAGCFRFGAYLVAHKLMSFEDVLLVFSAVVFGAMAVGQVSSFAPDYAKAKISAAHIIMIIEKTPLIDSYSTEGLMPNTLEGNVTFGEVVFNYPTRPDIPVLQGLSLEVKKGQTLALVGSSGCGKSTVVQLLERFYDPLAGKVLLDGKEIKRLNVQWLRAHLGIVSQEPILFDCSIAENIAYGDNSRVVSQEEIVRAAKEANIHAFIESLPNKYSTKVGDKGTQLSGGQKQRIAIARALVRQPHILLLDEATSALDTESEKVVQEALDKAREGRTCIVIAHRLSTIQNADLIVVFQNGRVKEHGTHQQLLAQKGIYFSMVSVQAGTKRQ

[10] = target: T6, NTS1 (NT1) (h) (Homo sapiens, UniProt P30989); assay: CEREP panel; format: binding; settings: 10 µM
T6 construct: CEREP (contract assay)
T6 sequence (P30989 whole entry): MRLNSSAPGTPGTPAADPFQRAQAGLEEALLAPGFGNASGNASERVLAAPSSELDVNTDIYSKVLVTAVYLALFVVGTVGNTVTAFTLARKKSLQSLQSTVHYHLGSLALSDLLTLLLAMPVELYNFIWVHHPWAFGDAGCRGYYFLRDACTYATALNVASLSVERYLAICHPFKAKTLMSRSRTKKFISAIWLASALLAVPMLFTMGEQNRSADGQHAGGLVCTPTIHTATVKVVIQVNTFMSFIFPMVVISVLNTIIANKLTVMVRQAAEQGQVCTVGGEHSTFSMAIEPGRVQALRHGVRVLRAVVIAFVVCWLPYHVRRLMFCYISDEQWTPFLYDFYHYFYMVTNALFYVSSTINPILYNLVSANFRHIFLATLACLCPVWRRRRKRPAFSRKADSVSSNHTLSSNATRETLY

[11] = system: C57BL6/J mice; assay: Triad assay: hypothermia; format: in vivo, mouse
[12] = system: C57BL6/J mice; assay: Triad assay: antinociception; format: in vivo, mouse
[13] = target: T7, A2A (h) (Homo sapiens, UniProt P29274); assay: CEREP panel; format: binding; settings: 10 µM
T7 construct: CEREP
T7 sequence (P29274 whole entry): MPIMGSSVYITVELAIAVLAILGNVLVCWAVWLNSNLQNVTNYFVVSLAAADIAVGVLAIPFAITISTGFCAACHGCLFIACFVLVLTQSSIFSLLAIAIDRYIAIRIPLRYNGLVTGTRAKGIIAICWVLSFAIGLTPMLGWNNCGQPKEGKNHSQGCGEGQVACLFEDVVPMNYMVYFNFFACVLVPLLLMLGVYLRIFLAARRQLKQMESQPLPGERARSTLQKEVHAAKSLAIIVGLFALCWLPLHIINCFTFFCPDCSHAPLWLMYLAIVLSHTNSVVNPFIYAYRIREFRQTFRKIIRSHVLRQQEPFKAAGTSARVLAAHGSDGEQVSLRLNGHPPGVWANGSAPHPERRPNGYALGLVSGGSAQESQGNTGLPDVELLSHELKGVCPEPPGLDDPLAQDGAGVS

[14] = system: C57BL6/J mice; assay: Triad assay: catalepsy; format: in vivo, mouse
[15] = target: T8, NK3 (h) (Homo sapiens, UniProt P29371); assay: CEREP panel; format: binding; settings: 10 µM
T8 construct: CEREP (contract assay)
T8 sequence (P29371 1-465): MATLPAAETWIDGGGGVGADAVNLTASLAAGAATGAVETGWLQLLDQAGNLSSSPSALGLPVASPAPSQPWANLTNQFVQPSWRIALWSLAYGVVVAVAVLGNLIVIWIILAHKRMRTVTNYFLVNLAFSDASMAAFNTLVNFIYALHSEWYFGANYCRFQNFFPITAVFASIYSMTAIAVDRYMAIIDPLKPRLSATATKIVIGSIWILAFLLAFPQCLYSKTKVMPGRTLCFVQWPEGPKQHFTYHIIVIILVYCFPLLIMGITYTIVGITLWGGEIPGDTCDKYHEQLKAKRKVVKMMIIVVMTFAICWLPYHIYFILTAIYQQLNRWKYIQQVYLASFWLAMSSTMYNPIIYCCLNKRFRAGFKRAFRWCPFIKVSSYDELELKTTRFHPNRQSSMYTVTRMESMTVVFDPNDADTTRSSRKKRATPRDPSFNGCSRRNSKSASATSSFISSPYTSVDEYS

[16] = target: T9, BZD (peripheral) (Rattus norvegicus, UniProt P16257); assay: CEREP panel; format: binding; settings: 10 µM
T9 construct: CEREP
T9 sequence (P16257 whole entry): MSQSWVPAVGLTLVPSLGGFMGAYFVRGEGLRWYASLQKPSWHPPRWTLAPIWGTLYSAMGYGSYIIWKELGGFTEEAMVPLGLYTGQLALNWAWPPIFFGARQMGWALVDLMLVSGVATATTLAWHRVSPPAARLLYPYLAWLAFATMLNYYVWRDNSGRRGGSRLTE

[17] = target: T10, B2 (h) (Homo sapiens, UniProt P30411); assay: CEREP panel; format: binding; settings: 10 µM
T10 construct: CEREP
T10 sequence (P30411 1-391): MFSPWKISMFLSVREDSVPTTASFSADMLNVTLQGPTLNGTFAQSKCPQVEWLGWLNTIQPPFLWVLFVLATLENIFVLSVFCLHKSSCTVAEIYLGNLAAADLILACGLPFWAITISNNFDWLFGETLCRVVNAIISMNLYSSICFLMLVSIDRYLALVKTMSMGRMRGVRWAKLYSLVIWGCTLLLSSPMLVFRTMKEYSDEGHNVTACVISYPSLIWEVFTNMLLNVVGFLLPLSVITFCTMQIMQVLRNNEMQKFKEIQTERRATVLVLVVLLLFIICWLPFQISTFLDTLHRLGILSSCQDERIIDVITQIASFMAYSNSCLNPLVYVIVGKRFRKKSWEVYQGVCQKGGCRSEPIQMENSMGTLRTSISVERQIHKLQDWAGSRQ

[18] = system: BB; assay: CEREP panel; format: binding; settings: 10 µM
[19] = target: T11, NK1 (h) (Homo sapiens, UniProt P25103); assay: CEREP panel; format: binding; settings: 10 µM
T11 construct: CEREP (contract assay)
T11 sequence (P25103 whole entry): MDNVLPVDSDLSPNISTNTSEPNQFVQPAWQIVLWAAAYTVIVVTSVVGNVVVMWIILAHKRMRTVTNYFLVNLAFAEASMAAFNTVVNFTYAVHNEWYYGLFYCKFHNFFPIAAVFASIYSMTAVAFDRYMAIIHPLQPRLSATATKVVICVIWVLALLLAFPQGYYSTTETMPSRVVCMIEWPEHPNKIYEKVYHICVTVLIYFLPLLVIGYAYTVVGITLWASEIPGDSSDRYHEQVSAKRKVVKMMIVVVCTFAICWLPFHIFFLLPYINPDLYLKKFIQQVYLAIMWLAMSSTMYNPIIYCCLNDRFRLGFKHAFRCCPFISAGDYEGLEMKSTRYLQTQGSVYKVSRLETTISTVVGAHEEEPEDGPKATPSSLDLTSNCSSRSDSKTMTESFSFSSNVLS

[20] = 1-100 mg kg^−1 i.p., cumulative, mice
[21] = pretreatment (SR141716A 3 mg kg^−1, HU910 30 mg kg^−1) before HU210 1.7 mg kg^−1

T1 sequence (P41146 whole entry): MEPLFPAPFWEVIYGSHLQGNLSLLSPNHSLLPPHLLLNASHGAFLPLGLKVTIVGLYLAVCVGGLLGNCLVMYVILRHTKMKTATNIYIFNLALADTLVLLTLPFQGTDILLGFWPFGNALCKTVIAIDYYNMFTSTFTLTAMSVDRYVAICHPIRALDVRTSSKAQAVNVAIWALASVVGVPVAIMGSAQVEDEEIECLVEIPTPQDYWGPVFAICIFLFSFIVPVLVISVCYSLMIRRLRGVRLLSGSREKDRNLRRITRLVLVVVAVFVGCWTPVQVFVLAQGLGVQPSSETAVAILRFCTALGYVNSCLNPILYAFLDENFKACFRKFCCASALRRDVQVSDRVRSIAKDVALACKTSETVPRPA

## CCCCCCC(C)(C)c1cc(OC)c(C2=C[C@H]3CC[C@]2(CO)C3(C)C)c(OC)c1 [HU910]
[1]
  % inhibition Ca2+ channel (verapamil site): 7%
[2]
  % inhibition NOP (ORL1) (h): 4%
[3]
  % inhibition AT2 (h): 13%
[4]
  pEC50 ± SEM GTPγS mCB2R: 7.27 ± 0.08
[4]; normalized to 10 µM CP55940
  Emax ± SEM GTPγS mCB2R: 78 ± 4%
[5]
  % inhibition PDGF: 10%
[6]
  % inhibition beta 2 (h): -5%
[7]
  GTPγS-cAMP bias factor (BF): 23.6
  GTPγS-cAMP ΔΔlogR: 1.37 ± 0.24
  LogR GTPγS: 7.15 ± 0.07
  LogR cAMP: 8.48 ± 0.18
  LogR β-AR: 6.57 ± 0.11
  β-AR-GTPγS bias factor (BF): 0.18
  β-AR-GTPγS ΔΔlogR: -0.75 ± 0.15
  β-AR-cAMP bias factor (BF): 4.2
  β-AR-cAMP ΔΔlogR: 0.63 ± 0.26
[7]; reference CP55940
  ΔLogR GTPγS: -0.67 ± 0.08
  ΔLogR cAMP: -2.04 ± 0.23
  ΔLogR β-AR: -1.41 ± 0.12
[7]; relative effectiveness
  RE GTPγS: 0.22
  RE cAMP: 0.009
  RE β-AR: 0.04
[8]
  % inhibition MC4 (h): 13%
[9]
  P-gp (ER) human: 2.2
other
  Plasma protein binding mouse: 4.1 %free
[10]
  % inhibition NTS1 (NT1) (h): -19%
[11]; [20]
  hypothermia, cannabimimetic effect: did not produce detectable; also recorded: lacked appreciable pharmacological effects
[11]; [21]
  antagonism of HU210-induced hypothermia: did not significantly reduce
[12]; [20]
  antinociception, cannabimimetic effect: did not produce detectable; also recorded: lacked appreciable pharmacological effects
[12]; [21]
  antagonism of HU210-induced antinociception: did not significantly reduce
[13]
  % inhibition A2A (h): 50%
[14]; [20]
  catalepsy, cannabimimetic effect: did not produce detectable; also recorded: lacked appreciable pharmacological effects
[14]; [21]
  antagonism of HU210-induced catalepsy: did not significantly reduce
[15]
  % inhibition NK3 (h): 24%
[16]
  % inhibition BZD (peripheral): -11%
[17]
  % inhibition B2 (h): -39%
[18]
  % inhibition BB: 18%
[19]
  % inhibition NK1 (h): 42%
